pEC50: −log10 of the molar value.
How the values were obtained:
CD69 = assay: Induction of CD69 in human whole blood; type: cell-based; conditions: 17 hrs at 37° C., y-axis 100% set to 1 uM of resiquimod, average where assay was performed multiple times, read-out: hWB CD69 EC50
Description: The induction of Type I interferon (IFN) MX-1 genes and the B-cell activation marker CD69 are downstream events that occur upon activation of the TLR7 pathway. The following is a human whole blood assay that measures their induction in response to a TLR7 agonist.
Heparinized human whole blood was harvested from human subjects and treated with test TLR7 agonist compounds at 1 mM. The blood was diluted with RPMI 1640 media and Echo was used to predot 10 nL per well giving a final concentration of 1 uM (10 nL in 10 uL of blood). After mixing on a shaker for 30 sec, the plates were covered and placed in a 37° C. chamber for o/n=17 hrs. Fixing/lysis buffer was prepared (5×->1× in H2O, warm at 37° C.; Cat #BD 558049) and kept the perm buffer (on ice) for later use.
For surface markers staining (CD69): prepared surface Abs: 0.045 ul hCD14-FITC (ThermoFisher Cat #MHCD1401)+0.6 ul hCD19-ef450 (ThermoFisher Cat #48-0198-42)+1.5 ul hCD69-PE (cat #BD555531)+0.855 ul FACS buffer. Added 3 ul/well, spin 1000 rpm for 1 min and mixed on shaker for 30 sec, put on ice for 30 mins. Stop stimulation after 30 minutes with 70 uL of prewarmed 1× fix/lysis buffer and use Feliex mate to resuspend (15 times, change tips for each plate) and incubate at 37 C for 10 minutes.
Centrifuge at 2000 rpm for 5 minutes aspirate with HCS plate washer, mix on shaker for 30 sec and then wash with 70 uL in dPBS and pelleted 2×s (2000 rpm for 5 min) and 50 ul wash in FACS buffer pelleted 1×s (2000 rpm for 5 min). Mix on shaker for 30 sec. For Intracellular markers staining (MX-1): Add 50 ul of BD Perm buffer III and mix on shaker for 30 sec. Incubate on ice for 30 minutes (in the dark). Wash with 50 uL of FACS buffer 2× (spin @2300 rpm×5 min after perm) followed by mixing on shaker for 30 sec. Resuspended in 20 ul of FACS buffer containing MX1 antibody ( )(4812)-Alexa 647: Novus Biologicals #NBP2-43704AF647) 20 ul FACS bf+0.8 ul hIgG+0.04 ul MX-1. Spin 1000 rpm for 1 min, mix on shaker for 30 se and the samples were incubated at RT in the dark for 45 minutes followed by washing 2×FACS buffer (spin @2300 rpm×5 min after perm). Resuspend 20 ul (35 uL total per well) of FACS buffer and cover with foil and place in 4° C. to read the following day. Plates were read on iQuePlus. The results were loaded into toolset and […] curves are generated in curve master. The y-axis 100% is set to 1 uM of resiquimod.

human TLR7 = target: T1, human TLR7 (Homo sapiens, UniProt Q9NYK1); assay: Human TLR7 agonist activity reporter assay (HEK-Blue TLR7 cells, SEAP reporter); type: cell-based; conditions: 18 h treatment, average where assay was performed multiple times, read-out: hTLR7 Agonism EC50
T1 construct: host or cells: HEK-Blue TLR7 cells (engineered human embryonic kidney cells)
T1 sequence (Q9NYK1 27-1049): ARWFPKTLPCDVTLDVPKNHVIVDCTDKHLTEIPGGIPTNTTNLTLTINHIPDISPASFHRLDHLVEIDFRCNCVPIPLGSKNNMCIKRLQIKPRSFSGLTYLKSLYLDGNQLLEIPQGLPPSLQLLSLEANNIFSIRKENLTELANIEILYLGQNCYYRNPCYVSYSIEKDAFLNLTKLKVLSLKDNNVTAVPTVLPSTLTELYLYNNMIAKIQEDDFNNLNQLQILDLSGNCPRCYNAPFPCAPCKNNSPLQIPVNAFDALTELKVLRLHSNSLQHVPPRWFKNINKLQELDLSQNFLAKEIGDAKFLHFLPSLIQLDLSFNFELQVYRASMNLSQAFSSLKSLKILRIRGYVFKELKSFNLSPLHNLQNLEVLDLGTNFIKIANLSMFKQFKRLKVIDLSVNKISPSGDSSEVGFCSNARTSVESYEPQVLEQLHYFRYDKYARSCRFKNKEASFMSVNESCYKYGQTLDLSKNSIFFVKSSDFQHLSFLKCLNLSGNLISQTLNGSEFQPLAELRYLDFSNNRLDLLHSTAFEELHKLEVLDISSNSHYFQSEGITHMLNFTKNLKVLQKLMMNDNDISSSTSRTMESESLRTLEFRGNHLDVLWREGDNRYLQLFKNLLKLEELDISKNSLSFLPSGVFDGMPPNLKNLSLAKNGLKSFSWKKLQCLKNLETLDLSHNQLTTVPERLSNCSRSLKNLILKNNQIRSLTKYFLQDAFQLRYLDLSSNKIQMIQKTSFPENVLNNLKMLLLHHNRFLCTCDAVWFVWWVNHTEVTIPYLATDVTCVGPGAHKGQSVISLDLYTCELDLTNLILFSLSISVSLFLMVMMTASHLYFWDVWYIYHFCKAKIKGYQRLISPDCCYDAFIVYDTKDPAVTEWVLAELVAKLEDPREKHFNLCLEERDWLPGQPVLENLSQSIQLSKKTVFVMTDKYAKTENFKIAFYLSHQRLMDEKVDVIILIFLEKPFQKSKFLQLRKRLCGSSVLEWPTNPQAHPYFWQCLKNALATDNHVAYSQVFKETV
Description: This procedure describes a method for assaying human TLR7 (hTLR7) agonist activity of the compounds disclosed in this specification.
HEK-Blue™ TLR7 cells were added to each well of a 384-well tissue-culture plate (15,000 cells per well) and incubated 16-18 h at 37° C., 5% CO2. Compounds (100 nl) were dispensed into wells containing the HEK-Blue™ TLR cells and the treated cells were incubated at 37° C., 5% CO2. After 18 h treatment ten microliters of freshly-prepared Quanti-Blue™ reagent (Invivogen) was added to each well, incubated for 30 min (37° C., 5% CO2) and SEAP levels measured using an Envision plate reader (OD=620 nm). The half maximal effective concentration values (EC50; compound concentration which induced a response halfway between the assay baseline and maximum) were calculated.

| pEC50 (CD69) | pEC50 (human TLR7) | SMILES |
| --- | --- | --- |
| 8.92 | 8.14 | CCC[C@@H](CCO)Nc1nc(N)nc2c(C)nn(Cc3ccc(CN4CCN(CCO)CC4)cc3OC)c12 [Compound 128, (3S)-3-({5-amino-1-[(4-{[4-(2-hydroxyethyl)piperazin-1-yl]methyl}-2-methoxy-phenyl)methyl]-3-methyl-1H-pyrazolo[4,3-d]pyrimidin-7-yl}amino)hexan-1-ol] |
| 6.60 | 6.23 | CCCCNc1nc(N)nc2c(CO)nn(Cc3ccc(CNC4CCOCC4)cc3OC)c12 [Compound 118, [5-amino-7-(butylamino)-1-[(2-methoxy-4-{[(oxan-4-yl)amino]methyl}phenyl)-methyl]-1H-pyrazolo[4,3-d]pyrimidin-3-yl]methanol] |

Source: patent US20230127326A1, “C3-SUBSTITUTED 1H-PYRAZOLO[4,3-d]PYRIMIDINE COMPOUNDS AS TOLL-LIKE RECEPTOR 7 (TLR7) AGONISTS” (BRISTOL-MYERS SQUIBB COMPANY, priority 2020, published 2023)
